From patent US20210186925A1, “Applications Of YD1701 In Preparation Of Drugs For Treating ALDH1A3 High-Expression Tumors” (First Affiliated Hospital Third Military Medical University …, priority 2017, published 2021)

System: orthotopic CRC transplanted tumors
Assay: orthotopic CRC transplanted tumors in mice
Format: in vivo
Conditions: YD1701 1 mg·kg^−1, 5-FU 10 mg·kg^−1, intraperitoneal, two weeks; three groups compared; FIG. 20
Protocol: To further assess the therapeutic potential of the YD1701, the inhibiting effects of the YD1701 and 5-FU(5-fluorouracil) on orthotopic CRC transplanted tumors in the mice are compared, and the experimental process is shown in FIG. 17. On the 20th day after the colons of mice of YD1701 are implanted with tumor micro-tissue blocks orthotopically, and the formation of the orthotopic transplanted tumors is determined by an in-vivo imaging system. […] Then, the determined mice with the orthotopic transplanted tumors are divided into three groups and subjected to intraperitoneal injection of YD1701 (1 mg·kg^−1), normal saline+DMSO and 5-FU (10 mg·kg^−1) for treatment for two weeks. The total survival time of the three groups of mice with the orthotopic transplanted tumors is compared.

O=c1[nH]cc(F)c(=O)[nH]1 [5-FU, 5-fluorouracil] was tested, and the “volume sizes of the tumors in situ in the colons” value was “no obvious difference”.
